Experimental findings from patent publication US8105798B2, “Cytoplasmic activity of retinoid X receptor and its regulation by ligands and dimerization” (The Burnham Institute, priority 2003, dated 2012) are described below.

What all share (type): cell-based
For one test, the system named is RARβ expression. Description: RARβ protein expression by Western analysis in cancer cells. Conditions: sulindac sulfide 100 μM, 24 hr.
In a further test the target is T1, RXRα (Homo sapiens, UniProt P19793).
T1 sequence (P19793 1-462): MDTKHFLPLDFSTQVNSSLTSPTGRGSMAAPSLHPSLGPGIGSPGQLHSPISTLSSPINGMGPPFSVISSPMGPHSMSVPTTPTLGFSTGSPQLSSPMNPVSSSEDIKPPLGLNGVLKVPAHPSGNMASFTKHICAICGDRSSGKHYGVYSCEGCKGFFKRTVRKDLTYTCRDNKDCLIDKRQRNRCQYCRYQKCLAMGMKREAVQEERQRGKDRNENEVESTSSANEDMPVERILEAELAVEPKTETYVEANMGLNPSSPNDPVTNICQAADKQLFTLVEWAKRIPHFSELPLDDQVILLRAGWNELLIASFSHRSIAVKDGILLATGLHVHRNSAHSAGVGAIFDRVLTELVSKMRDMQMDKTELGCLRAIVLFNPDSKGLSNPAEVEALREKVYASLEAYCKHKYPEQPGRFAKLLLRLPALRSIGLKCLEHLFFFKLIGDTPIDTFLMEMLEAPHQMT
The experiment in a line: subcellular localization of RXRα by immunostaining / confocal microscopy. How it is done:
Expression vector for Flag-RXRα was transfected into the indicated cell line. Cells were then treated with 15d-PGJ2 (5.micro.M) for 3 hr, then immunostained with anti-Flag antibody to detect RXRα Flag-RXRα was visualized by confocal microscopy.
Expression vectors for Flag-RXRα and GFP-TR3 were transfected into PC12 cells alone or together. Cells were then treated with 15d-PGJ2 (5.micro.M) for 3 hr, then immunostained with anti-Flag antibody to detect RXRα Flag-RXRα and GFP-TR3 were visualized by confocal microscopy, and their images merged.
Cos7 cells were transfected with GFP-RXRα and Mito-REP, and treated with or without 10^-4 M indomethacin or diclofenac for 4 hours. The distribution of GFP-RXRα and Mito-REP was visualized by confocal microscopy.
For example, cells such as LNCaP prostate cancer cells are induced to apoptosis using agents such as the phorbol ester, TPA (12-0-tetradecanolphorbol 13-acetate, Cell Signaling Technology Cat. No.: 9905).
For example, heat shock protein 60 (Hsp60) is a mitochondrial specific protein. […] The treated cells are then incubated with a conjugated secondary antibody and visualized using confocal microscopy. In this example, Cy-3 or FITC conjugated secondary antibodies were used for visualizing the sub-cellular localization of RXRα or Hsp60, respectively.
A GFP-RXRα expression vector was transfected into COS-7 cells and GFP-RXRα was expressed.
A fusion protein created by combining GFP and amino acids 348-398 of RXRα, is transfected into HEK293T cells.
To determine the role of 15d-PGJ2 binding on the new RXR pathway, a confocal microscopy analysis was performed to determine subcellular localization of RXRα in the presence or absence of 15d-PGJ2.
Because RXR heterodimerizes with TR3, Inventor examined the effect of 15d-PGJ2 on TR3 subcellular localization in PC12 phaeochromocytoma cells.
To determine the mechanism of RXRα mediated apoptosis in the presence of sulindac sulfide, Inventors examined the effect of sulindac sulfide on subcellular localization of RXRα

Another test addresses T2, RXRα/IKK interaction (Homo sapiens, UniProt P19793).
T2 construct: expressed in transfected cells; host or cells: HEK293T, pcDNA3 expression vectors
Description: co-immunoprecipitation assay of RXRα with IKK. Conditions: 6 hr. From the text: IKK is composed of three subunits: IKKα and IKKβ, the catalytic subunits, and IKKγ, a regulatory subunit. IKK activation is required for NF-kB activation through its phosphorylation and degradation of IkB in response to proinflammatory stimuli. In addition, IKK also regulates cellular processes in a NF-kB-independent manner. We examined whether sulindac sulfide-induced cytoplasmic RXRα could interact with IKK. The indicated expression vector (pcDNA3 from Invitrogen, Corp) was transfected into HEK293T cells alone or together. After transfection, cells were treated with sulindac sulfide (75.micro.M) for 6 hr, and the interaction of RXRα and IKKβ was analyzed by co-immunoprecipitation assay. […] (FIG. 17a). The interaction was also illustrated by their cytoplasmic co-localization in cells treated with sulindac sulfide. (FIG. 17b). […] In this example, H460 cells were treated with or without sulindac sulfide (75.micro.M) for 6 hr, and cells were stained for RXRα and IKKβ (FIG. 17c). […] HA-IKKγ and Flag-RXRα expression vectors were transfected into HEK293T cells alone or together. After transfection, cells were treated with a new retinoid (BI419 (10^-6 M), 15d-PGJ2 (5.micro.M), or sulindac sulfide (75.micro.M) for 6 hr. The interaction of RXRα and IKKγ was studied by co-immunoprecipitation assay.

T2 sequence (Q9Y6K9 whole entry partner, one chain of several): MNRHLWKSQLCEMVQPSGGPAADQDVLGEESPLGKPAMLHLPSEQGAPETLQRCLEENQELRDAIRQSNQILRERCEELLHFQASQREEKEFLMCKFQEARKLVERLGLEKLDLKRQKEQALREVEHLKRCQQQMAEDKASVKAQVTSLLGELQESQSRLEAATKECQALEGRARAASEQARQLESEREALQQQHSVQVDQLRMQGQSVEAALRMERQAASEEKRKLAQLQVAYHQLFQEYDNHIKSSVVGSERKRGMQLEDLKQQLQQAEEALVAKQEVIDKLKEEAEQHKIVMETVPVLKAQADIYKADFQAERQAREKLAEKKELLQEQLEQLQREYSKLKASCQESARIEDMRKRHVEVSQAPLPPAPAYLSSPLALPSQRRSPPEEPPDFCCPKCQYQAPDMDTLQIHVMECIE
T2 sequence (O14920 whole entry partner, one chain of several): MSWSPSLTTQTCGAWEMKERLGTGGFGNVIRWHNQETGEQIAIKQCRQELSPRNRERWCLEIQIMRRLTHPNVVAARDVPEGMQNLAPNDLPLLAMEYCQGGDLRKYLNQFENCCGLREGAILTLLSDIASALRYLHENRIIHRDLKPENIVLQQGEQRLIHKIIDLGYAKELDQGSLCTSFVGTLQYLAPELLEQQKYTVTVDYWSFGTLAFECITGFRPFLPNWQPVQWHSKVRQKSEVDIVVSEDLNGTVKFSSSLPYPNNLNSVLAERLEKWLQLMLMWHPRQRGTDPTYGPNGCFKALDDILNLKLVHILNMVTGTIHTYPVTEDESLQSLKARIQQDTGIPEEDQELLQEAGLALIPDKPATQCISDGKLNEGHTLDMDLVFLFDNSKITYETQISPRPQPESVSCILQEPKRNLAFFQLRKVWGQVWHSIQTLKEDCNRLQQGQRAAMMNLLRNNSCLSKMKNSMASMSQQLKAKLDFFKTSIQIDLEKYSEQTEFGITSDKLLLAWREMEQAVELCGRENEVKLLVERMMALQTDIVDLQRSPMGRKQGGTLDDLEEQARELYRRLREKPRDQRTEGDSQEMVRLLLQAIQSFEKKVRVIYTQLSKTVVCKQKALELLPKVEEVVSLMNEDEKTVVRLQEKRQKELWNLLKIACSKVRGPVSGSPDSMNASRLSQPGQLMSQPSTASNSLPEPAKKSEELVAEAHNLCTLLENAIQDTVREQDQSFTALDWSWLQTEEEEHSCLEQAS
Description for RARβ expression: The indicated cancer cells were treated for 24 h with or without trans-RA (10^-6 M), or 15d-PGJ2 (5.micro.M) or their combination. RARβ protein expression was determined by Western analysis.
The effect of sulindac sulfide on RXR transactivation was investigated for its effect of RARβ induction by all-trans-retinoic acid (tRA), which activates the RA response element (βRARE) in the RARβ promoter through an RAR/RXR heterodimer. […] The βRARE could be also activated by an RXR/PPAR heterodimer. […] Cells were treated for 24 hr with or without with trans-RA (10^-6 M), or SR11237 (10^-6 M), ciglitazone (10.micro.M), sulindac sulfide (100.micro.M) or the indicated combinations. RARβ protein expression was determined by Western analysis.

With `CSc1ccc(/C=C2/C(C)=C(CC(=O)O)c3cc(F)ccc32)cc1` [sulindac sulfide], the “inducing effect of tRA on RARβ” value in the test with RARβ expression (ZR-75-1 and Calu-6 cells, trans-RA 10^-6 M) is “effectively suppressed”. Further, in the test on RARβ expression (SR11237 10^-6 M, ciglitazone 10 μM), the “activation of RXR/PPAR heterodimer by SR11237 and ciglitazone (RARβ expression)” value is “effectively inhibited”. Moreover, on RXRα (Calu-6, H460, LNCaP, ZR-75-1, MGC80-3 and HEK293T cells, 75 μM, 6 hr), the “endogenous RXRα localization” value is “found mainly in the cytoplasm”. Besides, the RXRα mitochondrial localization entry at RXRα (H460, MGC80-3 and LNCaP cells, 75 μM, 6 hr) is listed as “results in RXRα mitochondrial localization”. Besides, the “transfected RXRα localization” value on RXRα (HEK293T cells, sulindac sulfide) is recorded as “found in the cytoplasm”. Moreover, the “interaction of RXRα with IKKγ” value on RXRα/IKK interaction (HEK293T cells, HA-IKKγ and Flag-RXRα, BI419 10^-6 M, 15d-PGJ2 5 μM, sulindac sulfide 75 μM) is listed as “further promoted”. Further, the “interaction between RXRα and IKKβ” value on RXRα/IKK interaction (transfected HEK293T cells, 75 μM) was “extensive interaction”.
